Values quoted from earlier work in publication PMC4059071 (Angewandte Chemie (International ed. in English), 2013).

Tested on: Akt
Details: ref [13]

Cc1n[nH]c2ccc(-c3cncc(OC[C@@H](N)Cc4c[nH]c5ccccc45)c3)cc12 [A-443654]
effect on Akt phosphorylation (Thr308 and Ser473 of Akt): paradoxical hyperphosphorylation of Akt at both Thr308 and Ser473
effect on Akt protein activity after inhibitor dissociation: protein reactivation after inhibitor dissociation
